# A melting point compilation (Tetko et al.; mined from patent text by program, amines drawn as free bases though some values may be those of a salt)
row,Structure (SMILES),melting point [°C]
1,COC(=O)c1cnc(N2CCNC2=O)s1,205 to 208
2,CN1CCN(c2cc3ncc(C#N)c(Nc4ccc(F)c(Cl)c4)c3cc2[N+](=O)[O-])CC1,240 to 246
3,C#CCOCc1c(C)nc2c(OCc3ccccc3C)cccn12,87 to 89
4,CC[C@H](NC(=O)c1cc(F)ccc1NS(=O)(=O)c1cccc2cccnc12)c1ccccc1,163
5,CCC1(CCCCCl)C(=O)Nc2ccc(F)cc21 (configuration not stated),96 to 97
6,Cc1ccc(S(=O)(=O)NC(=O)Nc2c(Br)cc(Br)cc2Br)cc1,230
7,CN(CC(CCOS(C)(=O)=O)c1ccc(Cl)c(Cl)c1)C(=O)c1ccccc1 (configuration not stated),100 to 102
8,COC(=O)CC1COc2ccc(N)cc2C1 (configuration not stated),104 to 106
9,N#Cc1c(-c2ccc(Cl)c(Cl)c2)[nH]c(C(F)(F)F)c1Cl,239 to 241
10,C=C(OCCCC)c1ccc(NC(C)=O)nc1,55 to 58
11,COc1cccc2c1OCc1nc(C(=O)O)cn1-2,275 to 277
12,COc1ccc(-c2nc3ccc(OC(F)(F)F)cc3[nH]2)cc1OCc1ccccc1,226 to 228
13,Fc1cc(Cl)cnc1Cl,38 to 39
14,O=C(C[C@@H](NC(=O)C(F)(F)F)C(=O)O)c1ccc(F)c(F)c1,136 to 137
15,O=c1ccn(-c2cccc(C(F)(F)F)c2)nc1-c1ccnn1-c1ccc(F)cc1,130 to 131
16,CCOC(=O)C(C#N)=CNc1ccc(CC)cn1,155 to 156
17,CC1(C)Oc2ccc(C#N)cc2C(NC(=O)C(N)c2ccccc2)C1O (configuration not stated),109 to 111
18,C=CCCC(O)=C(C#N)C(=O)Nc1ccc(Cl)c(C)c1,134
19,CC(=Cc1ccccc1)n1c(=O)n(CCCCCl)c2ccccc21,90
20,CCOC(=O)Cc1sc(Sc2ccc(OC)nn2)nc1C,47 to 49
21,Cc1cc(C)c2cc(N)c(=O)[nH]c2n1,238 to 240
22,CCc1ccc(NC(=O)OCc2ccccc2)nc1,125 to 127
23,O=C(NCc1cccnc1)c1cnc(N2CCN(CC3CC3)C2=O)s1,190 to 192
24,O=S(CCO)CCC(c1cc(F)ccc1F)S(=O)(=O)c1ccc(Cl)cc1 (configuration not stated),124 to 132
25,CN(C)C1(Cc2ccccc2)CCC(O)(c2cc3ccccc3s2)CC1 (configuration not stated),128 to 131
26,COC(=O)CCc1oc(-n2ccnc2SC)nc1-c1ccc(Cl)cc1,88 to 89

row,Structure (SMILES),melting point [°C]
1,CCCCCCCCCCCCCCCC(=O)OCC(F)(F)Cn1nc(C)c(-c2ccc3c(c2)NC(=O)CO3)c1-c1ccc(F)cc1,106
2,O=C(O)c1ccc(S(=O)(=O)Oc2ccc(CCc3c(Cc4ccccc4)sc4ccccc34)cc2)cc1O,57 to 59
3,CC(=Cc1cn(-c2cccnc2)c2ccccc12)C(=O)O,213 to 215
4,Cc1nc(CC(N)=O)no1,112 to 114
5,COC(=O)C(C)(C)OCC#Cc1cc(Cl)ccc1NS(=O)(=O)c1ccc2c(c1)OCCN2C,98 to 100
6,COc1ccc(NC(=O)C(C)(C)c2ccc(S(=O)(=O)/C=C/C#N)cc2)cc1,123 to 126
7,CC(=O)Nc1ncc(-c2cccc3ccccc23)o1,188 to 190
8,COc1cc(C(=O)O)c(-n2c3ccccc3c3ccccc32)cc1C(=O)O,298
9,Cc1cc2ccccc2n1-c1ccc(OCc2ccccc2)c(F)c1,70 to 71
10,COC(=O)c1cc(Br)cc(-c2ccc3c(c2)C(C)(C)CCC3(C)C)c1,88
11,CCN(CC)c1nc(C)cc(O)n1,131 to 132
12,NS(=O)(=O)c1ccccc1-n1cccn1,167 to 170
13,CCCCCS(=O)(=O)NC(=O)CCc1ccc(OCCCOC)cc1Oc1ncc(C(F)(F)F)cc1Cl,115
14,COC1=CC2=CCC3C(CCC4(C)C(C5=NC(OCc6ccccc6)OC5)=CCC34)C2(C)CC1 (configuration not stated),115 to 125
15,CCOC(=O)c1sc(-n2ccc(OCC3CC3)cc2=O)nc1C,180 to 183
16,COc1ccc2cc([C@H](C)C(=O)OCCS(=O)(=O)CCO)ccc2c1,81 to 84
17,CN(C)c1ccc(OCC(=O)c2cccc(Cl)c2)cc1,69 to 70
18,Cc1cn([C@H]2C=C[C@@H](O)C2)c(=O)nc1-n1cncn1 (racemic),143 to 146
19,CC(=O)Nc1scc(C)c1C(=O)c1ccccc1Cl,148 to 149
20,O=c1cc(-c2ccc(O)c(-c3cccs3)c2)oc2ncccc12,274 to 275
21,O=S(=O)(NCCCCOc1ccc(-n2ccnc2)cc1)c1ccc(Br)cc1,134 to 136
22,O=c1[nH]c2cccnc2n1-c1cc(F)ccc1F,229
23,CCCNCCCOc1ccc(-c2ccc(C(=O)OCC)cc2)cc1-c1ccc2c(c1)C(C)(C)CCC2(C)C,120
24,c1ccc(CN2CCCC3(C2)OC(c2ccccc2)(c2ccccc2)c2ccccc23)cc1 (configuration not stated),144 to 146
25,CCOC(=O)c1cnn(C)c1C(=O)Nc1ccn2nc(Br)nc2c1,177 to 180
26,O=C(Nc1cccc2c(CO)c(Br)cnc12)c1c(Cl)cccc1Cl,246 to 247

row,Structure (SMILES),melting point [°C]
1,COc1cc2c(cc1OC)CN(CCC1OCC(C)(C)c3cc(OC)c(OC)cc31)CC2 (configuration not stated),100 to 105
2,CCCCCCNC(=O)C(C)N1CCN(c2ccccn2)CC1 (configuration not stated),131 to 132
3,CCCCn1c(=O)n(CCC)c(=O)c2c(N)n(CCCl)nc21,118 to 121
4,O=C(O)COc1cccc2c1OCc1sc(SCCC(c3ccccc3)c3ccccc3)nc1-2,112 to 114
5,FC(F)(F)c1ccc(-c2ccc(Cl)nc2)cc1,98 to 101
6,COC(=O)c1cccc2nc(SCCN3CCN(CC(=O)Nc4c(SC(C)C)cc(C)nc4SC(C)C)CC3)oc12,60 to 63
7,O=C1CCC(N2C(=O)c3ccccc3C2=O)CC1,140 to 142
8,O=C(O)CN1C(=O)C(=Cc2cccc(Cl)c2)SC1=S,227 to 229
9,Cc1cccc(C)c1CNc1c(NC(C)(C)C)c(=O)c1=O,265 to 267
10,COc1cccc2cc3c(c(-c4ccc5c(c4)OCO5)c12)CNC3=O,295 to 298
11,CN1C(=O)Cn2c(nn(-c3ccccc3)c2=O)-c2cc(Cl)ccc21,174 to 175
12,COC(=O)NC(=NS(=O)(=O)NC(C)C)SCc1ccccc1,76 to 78
13,CC(C)OC(=O)C1Oc2ccccc2Cc2ccccc2O1,94 to 97
14,CCN(CC)C(=O)c1nc[nH]n1,173 to 174
15,CCN(CC)OCc1cc(C(C)(C)C)c(O)c(C(C)(C)C)c1,129 to 137
16,CCOC(=O)c1ccccc1OCNC(=O)CCCCCNC(=O)OC(C)(C)C,120 to 121
17,COc1cc(COc2nn(-c3ccccc3)cc2C=O)ccc1OCc1nc(-c2cccc(C#N)c2)oc1C,161 to 162
18,CN(C)c1ccc(C=CC(O)c2cnc3sc4c(n23)CCCCC4)cc1 (configuration not stated),168 to 170
19,COc1cc2c(Nc3cccc(Cl)c3F)ncnc2cc1OC1CCN(C(=O)C2CCCO2)CC1 (configuration not stated),193 to 194
20,BrCc1cc2ccccc2s1,107 to 109
21,COP(=O)(Cc1c(C)ccc2ccccc12)OC,54 to 57
22,Cc1nc(N2CCCC(NCC3CC3)C2=O)sc1C(=O)NCc1ccccc1 (configuration not stated),125 to 126
23,CC(=O)c1ccc(C(=O)NC/C=C/c2ccccc2)cc1,120
24,CC(C)C[C@H](NCc1ccc(OC(C)(C)C)cc1)C(=O)N1CCN(C(c2ccc(F)cc2)c2ccc(F)cc2)CC1,56 to 61
25,O=C(O)CCCNC(=O)c1n[nH]cc1NC(=O)c1ccccn1,227 to 228
26,CN1CCC(C2c3ccccc3C=Cc3ccccc32)CC1,127

row,Structure (SMILES),melting point [°C]
1,COC(=O)CC1=C(C)C(=Cc2ccc(S(N)(=O)=O)cc2)c2ccc(OC)cc21,170 to 171
2,CS(=O)(=O)c1ccc(Cc2ccc3ccccc3c2O)cc1,144 to 145
3,CCOC(=O)c1cc2cc3[nH]c(=O)[nH]c3cc2[nH]1,196 to 197
4,CCCc1c(C(OC)OC)cc([N+](=O)[O-])c(OC)c1OC,52.1 to 54
5,CCCSC1=NSc2cc(C)cnc2N1Cc1ccc(-c2ccccc2C(=O)O)cc1,237 to 239
6,CC1(C)CCSc2ccc(C(O)COc3ccc(C(=O)O)c(O)c3)cc21 (configuration not stated),166 to 167
7,CCCc1nn(C)c2c(=O)[nH]c(Cc3ccc(C(=O)O)cc3)nc12,292 to 293
8,COc1cc(Cc2cnc(N)nc2N)cc2c1OC(C)(C)C=C2C#CCO,236 to 237
9,OCc1ccc(C2=NOC(c3cc(Cl)cc(Cl)c3)(C(F)(F)F)C2)cc1 (configuration not stated),108 to 110
10,CC(C)CC(CO)NC(=O)c1ccccc1SSc1ccccc1C(=O)NC(CO)CC(C)C (configuration not stated),195 to 196
11,CC(/C=C/C(Br)=C(/C)c1ccc2c(c1)C(C)(C)CCC2(C)C)=C\C(=O)O,189 to 190
12,CC(C(=O)N(C)C)n1c(-c2ccc(Cl)cc2)nc2cccnc21 (configuration not stated),124 to 126
13,Cc1cccc(-c2n[nH]cc2-c2ccc(F)c(-c3ccc(N4CCN(C)CC4)cn3)c2)n1,97
14,N#Cc1ccc(Oc2ccc(N)c(CN)c2)cc1,80 to 82
15,CCc1cnc(N2CCN(C(=O)c3ccc(Nc4ncnc5ccccc45)cc3)CC2)nc1,248 to 249
16,CCc1nc2c(n1C(CC)CC)C(=O)N(C)CN2c1ccc(OC)cc1Cl,184 to 185
17,CNC(=O)c1ccc(C(=O)Nc2cccc(C3=NC(C)(C)Cc4cc(OC)c5c(c43)CC(C)(C)O5)c2)cc1,310 to 312
18,O=c1c2cnc(-c3ccccc3)nc2sn1CCc1ccccn1,132 to 133
19,CC#CCOc1cc(C=O)ccc1OC,81 to 83
20,CS(=O)(=O)Nc1ccc(C(=O)C2CCN(CCc3cnc4ccccc4n3)CC2)cc1,156 to 157
21,CCC(=O)Oc1cccc(NC(=O)CBr)c1,85 to 88
22,CC(C)=NNc1cc2c(nn1)CCN(C(=O)CC(c1ccccc1)c1ccccc1)C2,172 to 175
23,CCn1ncc(OCc2ccc(C(=O)c3ccc(Cl)cc3)s2)c(Cl)c1=O,168
24,O=C(Nc1c[nH]nc1C(=O)NCCCc1ccccc1)c1ccccn1,179 to 180
